Assay results reported in publication PMC8848768, “Synthesis and evaluation of potent yaku'amide A analogs” (Chemical Science, 2022).
Where two headings read alike, the source gives them in different places. Square brackets hold non-standard residues; d marks the D form. Peptide text beside a SMILES is read from it. * marks the point of attachment. NH((S)-1-NMe2-3-Me-but-2-yl) = CC(C)[C@@H](CN(C)C)N*; dVal(3-OH) = CC(C)(O)[C@@H](N)C(=O)O; d(aIle) = CC[C@H](C)[C@@H](N)C(=O)O; Val(3-OH) = CC(C)(O)[C@H](N)C(=O)O; ΔVal = CC(C)=C(N)C(=O)O

Key:
[1] = system: HCT116; experiment: cells; details: read-out: Aver IC50, HCT116
Experimental: (§1) The antiproliferative activity profiles of 1a, its full-length analogs 2a and 2b, and its partial structures (23, 24, 26, and 30) were determined by in vitro screening in 72 hours MTS cell proliferation assays against a panel of 18 different human cancer cell lines. […] The three peptides were also evaluated for their antiproliferative activity against the lung fibroblast MRC5 cell line.
(§2) Cells (40 µ L) are added into individual wells of a 384-well black/clear bottom plate on day zero at concentrations enabling continuous log growth over the course of the assay. On day one, compounds (or DMSO) are transferred using an ATS-liquid handler (100 nL per well) to individual wells containing cells and the cells are treated for 72 hours (37 °C, 5% CO 2) prior to measuring proliferation using MTS reagent following manufacturer’s instructions. Net OD values are determined by subtracting the average OD values of cells (measured on day 1, T = 0) from average total OD value of cells (measured on day 4, T = 72h). IC 50 values are calculated using proprietary software (IC 50 values normalized against all compounds). Results represent n>2 independent studies (in duplicate).
(§3) Table S1. Antiproliferative Data of Compounds 1a, 2a, 2b, 23, 24, 26, and 30.
(§4) Table S2. Human Cell Line Descriptions.
(§5) Human Cell Line* Description
(§6) *All cells were obtained from ATCC and are authenticated

[2] = system: A375; experiment: cells; details: read-out: Aver IC50, A375
Experimental: as §1, §2, §3, §4, §5, §6

[3] = system: BXPC3; experiment: cells; details: read-out: Aver IC50, BXPC3
Experimental: as §1, §2, §3, §4, §5, §6

[4] = system: PANC1005; experiment: cells; details: read-out: Aver IC50, PANC1005
Experimental: as §1, §2, §3, §4, §5, §6

[5] = system: SNUC1; experiment: cells; details: read-out: Aver IC50, SNUC1
Experimental: as §1, §2, §3, §4, §5, §6

[6] = system: NCIH1048; experiment: cells; details: read-out: Aver IC50, NCIH1048
Experimental: as §1, §2, §3, §4, §5, §6

[7] = system: CALU6; experiment: cells; details: read-out: Aver IC50, CALU6
Experimental: as §1, §2, §3, §4, §5, §6

[8] = system: RAMOS; experiment: cells; details: read-out: Aver IC50, RAMOS
Experimental: as §1, §2, §3, §4, §5, §6

[9] = system: THP1; experiment: cells; details: read-out: Aver IC50, THP1
Experimental: as §1, §2, §3, §4, §5, §6

[10] = system: U937; experiment: cells; details: read-out: Aver IC50, U937
Experimental: as §1, §2, §3, §4, §5, §6

[11] = system: A549; experiment: cells; details: read-out: Aver IC50, A549
Experimental: as §1, §2, §3, §4, §5, §6

[12] = system: JURKAT; experiment: cells; details: read-out: Aver IC50, JURKAT
Experimental: as §1, §2, §3, §4, §5, §6

[13] = system: lung fibroblast MRC5 cell line; experiment: cells; details: read-out: Aver IC50, MRC5
Experimental: as §1, §2, §3, §4, §5, §6

[14] = system: OVCAR3; experiment: cells; details: read-out: Aver IC50, OVCAR3
Experimental: as §1, §2, §3, §4, §5, §6

[15] = system: COLO678; experiment: cells; details: read-out: Aver IC50, COLO678
Experimental: as §1, §2, §3, §4, §5, §6

[16] = system: HT29; experiment: cells; details: read-out: Aver IC50, HT29
Experimental: as §1, §2, §3, §4, §5, §6

[17] = system: MV411; experiment: cells; details: read-out: Aver IC50, MV411
Experimental: as §1, §2, §3, §4, §5, §6

[18] = system: HL60; experiment: cells; details: read-out: Aver IC50, HL60
Experimental: as §1, §2, §3, §4, §5, §6

[19] = system: MCF7; details: read-out: Aver IC50, MCF7; MCF7 (Breast Carcinoma); MTS, 72 hours, 37 °C, 5% CO2, 384-well; n>2 independent studies (in duplicate)
Experimental: as §1, §2, §3, §4, §5, §6

[20] = HCT116 (Colon Carcinoma), MTS, 72 hours, 37 °C, 5% CO2, 384-well, n>2 independent studies (in duplicate)
[21] = A375 (Malignant Melanoma), MTS, 72 hours, 37 °C, 5% CO2, 384-well, n>2 independent studies (in duplicate)
[22] = BXPC3 (Pancreatic - Adenocarcinoma), MTS, 72 hours, 37 °C, 5% CO2, 384-well, n>2 independent studies (in duplicate)
[23] = PANC1005 (Pancreatic - Adenocarcinoma), MTS, 72 hours, 37 °C, 5% CO2, 384-well, n>2 independent studies (in duplicate)
[24] = SNUC1 (Colon Carcinoma), MTS, 72 hours, 37 °C, 5% CO2, 384-well, n>2 independent studies (in duplicate)
[25] = NCIH1048 (Lung - SCLC), MTS, 72 hours, 37 °C, 5% CO2, 384-well, n>2 independent studies (in duplicate)
[26] = CALU6 (Lung - Adenocarcinoma), MTS, 72 hours, 37 °C, 5% CO2, 384-well, n>2 independent studies (in duplicate)
[27] = RAMOS (Burkitt's lymphoma), MTS, 72 hours, 37 °C, 5% CO2, 384-well, n>2 independent studies (in duplicate)
[28] = THP1 (Acute Monocytic Leukemia), MTS, 72 hours, 37 °C, 5% CO2, 384-well, n>2 independent studies (in duplicate)
[29] = U937 (Pro-monocytic, Human Myeloid Leukemia), MTS, 72 hours, 37 °C, 5% CO2, 384-well, n>2 independent studies (in duplicate)
[30] = A549 (Lung - NSCLC), MTS, 72 hours, 37 °C, 5% CO2, 384-well, n>2 independent studies (in duplicate)
[31] = JURKAT (acute T-cell leukemia), MTS, 72 hours, 37 °C, 5% CO2, 384-well, n>2 independent studies (in duplicate)
[32] = MRC5 (Lung Fibroblast, noncancerous), MTS, 72 hours, 37 °C, 5% CO2, 384-well, n>2 independent studies (in duplicate)
[33] = OVCAR3 (Ovary - Adenocarcinoma), MTS, 72 hours, 37 °C, 5% CO2, 384-well, n>2 independent studies (in duplicate)
[34] = COLO678 (Colon Carcinoma), MTS, 72 hours, 37 °C, 5% CO2, 384-well, n>2 independent studies (in duplicate)
[35] = HT29 (Colon Carcinoma), MTS, 72 hours, 37 °C, 5% CO2, 384-well, n>2 independent studies (in duplicate)
[36] = MV411 (Acute Myeloid Leukemia), MTS, 72 hours, 37 °C, 5% CO2, 384-well, n>2 independent studies (in duplicate)
[37] = HL60 (Leukema - Promyelocytic), MTS, 72 hours, 37 °C, 5% CO2, 384-well, n>2 independent studies (in duplicate)

| SMILES | IC50 [1, 20] | IC50 [2, 21] | IC50 [3, 22] | IC50 [4, 23] | IC50 [5, 24] | IC50 [6, 25] | IC50 [7, 26] | IC50 [8, 27] | IC50 [9, 28] | IC50 [10, 29] | IC50 [11, 30] | IC50 [12, 31] | IC50 [13, 32] | IC50 [14, 33] | IC50 [15, 34] | IC50 [16, 35] | IC50 [17, 36] | IC50 [18, 37] | IC50 ([1]; Homo sapiens, HCT-116, 72 h) | IC50 ([2]; Homo sapiens, A-375, 72 h) | further results |
| --- | --- | --- | --- | --- | --- | --- | --- | --- | --- | --- | --- | --- | --- | --- | --- | --- | --- | --- | --- | --- | --- |
| CCC(CC)=C(NC(=O)CNC(=O)C(NC(=O)[C@@H](NC(=O)C(C)(C)C(=O)[C@@H](C)CC(C)C)[C@](C)(O)CC)=C(C)C)C(=O)N[C@@H](C(=O)NCCN(C)C)C(C)C [Compound 26] | > 25000 nM | > 25000 nM | > 25000 nM | > 25000 nM | > 25000 nM | > 25000 nM | > 25000 nM | > 25000 nM | > 25000 nM | > 25000 nM | > 25000 nM | > 25000 nM | > 25000 nM | > 25000 nM | > 25000 nM | > 25000 nM | > 25000 nM | > 25000 nM | – | – | IC50 [19]: 6340 nM |
| CC(=O)O[C@H]1C(=O)[C@@]2(C)[C@H]([C@H](OC(=O)c3ccccc3)[C@]3(O)C[C@H](OC(=O)[C@H](O)[C@@H](NC(=O)c4ccccc4)c4ccccc4)C(C)=C1C3(C)C)[C@]1(OC(C)=O)CO[C@@H]1C[C@@H]2O [Paclitaxel, reference compound] | – | – | – | – | – | – | – | – | – | – | – | – | – | – | – | – | – | – | 3.4 nM | 7.7 nM | IC50 ([3]; Homo sapiens, BXPC-3, 72 h): 5.5 nM; IC50 ([4]; Homo sapiens, Panc1005, 72 h): 7.4 nM; IC50 ([5]; Homo sapiens, SNU-C1, 72 h): 26.5 nM; IC50 ([6]; Homo sapiens, NCI-H1048, 72 h): 4.7 nM; IC50 ([7]; Homo sapiens, Calu-6, 72 h): 3.6 nM; IC50 ([8]; Homo sapiens, Ramos, 72 h): 5.9 nM; IC50 ([9]; Homo sapiens, THP-1, 72 h): 6.8 nM; IC50 ([10]; Homo sapiens, U-937, 72 h): 3 nM; IC50 ([11]; Homo sapiens, A549, 72 h): 4.6 nM; IC50 ([12]; Homo sapiens, Jurkat, 72 h): 5.3 nM; IC50 ([13]; Homo sapiens, MRC5, 72 h): 8.8 nM; IC50 ([14]; Homo sapiens, OVCAR-3, 72 h): 3 nM; IC50 ([15]; Homo sapiens, COLO-678, 72 h): 24 nM; IC50 ([16]; Homo sapiens, HT-29, 72 h): 6 nM; IC50 ([17]; Homo sapiens, MV4-11, 72 h): 4.4 nM; IC50 ([18]; Homo sapiens, HL-60, 72 h): 9.7 nM |
| CC[C@H](C)[C@@H](NC(C)=O)C(=O)N[C@@H](C(=O)N[C@H](C(=O)NC(C(=O)N[C@H](C)C(=O)N[C@@H](C(=O)N[C@H](C(=O)NC(C(=O)N[C@H](CN(C)C)C(C)C)=C(C)C)C(C)C)C(C)C)=C(C)C)C(C)(C)O)C(C)(C)O [Compound 24] (Ac-[d(aIle)][dVal(3-OH)][Val(3-OH)][ΔVal][dA][dV]V[ΔVal]-{NH((S)-1-NMe2-3-Me-but-2-yl)}) | > 25000 nM | > 25000 nM | > 25000 nM | > 25000 nM | 24900 nM | > 25000 nM | > 25000 nM | > 25000 nM | > 25000 nM | > 25000 nM | > 25000 nM | > 25000 nM | > 25000 nM | > 25000 nM | > 25000 nM | > 25000 nM | > 25000 nM | > 25000 nM | – | – | – |
| CC(=O)N[C@@H](C(=O)N[C@H](C(=O)NC(C(=O)N[C@H](CN(C)C)C(C)C)=C(C)C)C(C)C)C(C)C [Compound 23] | > 25000 nM | > 25000 nM | > 25000 nM | > 25000 nM | > 25000 nM | > 25000 nM | > 25000 nM | > 25000 nM | > 25000 nM | > 25000 nM | > 25000 nM | > 25000 nM | > 25000 nM | > 25000 nM | > 25000 nM | > 25000 nM | > 25000 nM | > 25000 nM | – | – | – |
| CC[C@@]1(O)C(=O)OCc2c1cc1n(c2=O)Cc2cc3ccccc3nc2-1 [Camptothecin, reference compound] | – | – | – | – | – | – | – | – | – | – | – | – | – | – | – | – | – | – | 10.9 nM | 5.9 nM | IC50 ([3]; Homo sapiens, BXPC-3, 72 h): 38.4 nM; IC50 ([4]; Homo sapiens, Panc1005, 72 h): 45.3 nM; IC50 ([5]; Homo sapiens, SNU-C1, 72 h): 47.4 nM; IC50 ([6]; Homo sapiens, NCI-H1048, 72 h): 9.7 nM; IC50 ([7]; Homo sapiens, Calu-6, 72 h): 10.2 nM; IC50 ([8]; Homo sapiens, Ramos, 72 h): 9.7 nM; IC50 ([9]; Homo sapiens, THP-1, 72 h): 44.9 nM; IC50 ([10]; Homo sapiens, U-937, 72 h): 19.7 nM; IC50 ([11]; Homo sapiens, A549, 72 h): 27.7 nM; IC50 ([12]; Homo sapiens, Jurkat, 72 h): 7.3 nM; IC50 ([13]; Homo sapiens, MRC5, 72 h): 52.5 nM; IC50 ([14]; Homo sapiens, OVCAR-3, 72 h): 53.4 nM; IC50 ([15]; Homo sapiens, COLO-678, 72 h): 126 nM; IC50 ([16]; Homo sapiens, HT-29, 72 h): 103 nM; IC50 ([17]; Homo sapiens, MV4-11, 72 h): 7.1 nM; IC50 ([18]; Homo sapiens, HL-60, 72 h): 21 nM |
